# From patent US12121514B2, “Nonselective metabotropic glutamate receptor activators for treatment of attention deficit disorder and 22Q syndrome” (THE CHILDREN'S HOSPITAL OF PHILADELPHIA, priority 2015, dated 2024)
# Tested on: adolescent subjects with ADHD and at least one genetic alteration in an mGluR network gene
# Assay: QUOTIENT ADHD test, Phase Ib trial of NFC-1
# Format: in vivo, human
# Conditions: Tier-1 genetic group; week 5 (400 mg twice daily); from just over 100; P<0.05
# From the text: Quotient ADHD scores use a medical device to measure hyperactivity, attention, and impulsivity in patients with ADHD. The Quotient ADHD tool uses motion tracking technology to track a patient's micro-movements while they complete a 15-20-minute computerized test. Following the patient's completion of the test, patterns of motions, the accuracy of responses, and fluctuations in attention state can be analyzed. All efficacy assessments, except actigraphy, were made at study enrollment (“enrollment baseline”) and again, including actigraphy, once-per-week for the placebo week (“week 1” or “placebo baseline”) and at each of the 4 weeks of NFC-1 treatment. These efficacy measures include items 1-18 of the Vanderbilt scale assessing symptoms related to inattentiveness and hyperactivity-impulsiveness as well as additional questions 19-47 of the Vanderbilt scale assessing other behavioral symptoms (conducted by parent), actigraphy for quantitative measurement of activity, Quotient® ADHD test for objective measurement of micro-motion and shifts in attention state, PERMP-Math test, and CGI-I and CGI-S for assessment of global functioning. […]
smiles,measurement,value
"O=C1CC[C@H](C(=O)N2CCCCC2)N1 [NFC-1, fasoracetam monohydrate]",normalized inattention value (QUOTIENT ADHD test),about 90
